Assay results taken from ChEMBL document CHEMBL5036357, “2,3-Difunctionalized Benzo[b]thiophene Scaffolds Possessing Potent Antiangiogenic Properties” (J Med Chem, 2022).
The source made the active and inactive calls. The rule behind the calls is not given here.

Legend:
HUVEC [1] = experiment: Anti-angiogenesis activity against HUVEC cells assessed as tubule formation at 10 uM incubated for 6 hrs by inverted fluorescence microscopic analysis relative to control; assay type: functional, Homo sapiens
HUVEC [2] = experiment: Anti-angiogenesis activity against HUVEC cells assessed as tubule formation at 250 nM incubated for 6 hrs by inverted fluorescence microscopic analysis relative to control; assay type: functional, Homo sapiens
HUVEC [3] = experiment: Anti-angiogenesis activity against HUVEC cells assessed as reduction in tubule formation at 50 nM incubated for 6 hrs by inverted fluorescence microscopic analysis relative to control; assay type: functional, Homo sapiens; parameters: scale not given: the % may be the effect or the level left
Mus musculus [4] = species: Mus musculus; experiment: Antiangiogenic activity in BALB/c mouse assessed as reduction in neovascularization by measuring reduction in hemoglobin concentration at 2 uM by matrigel plug assay; assay type: functional, organism-based
Mus musculus [5] = species: Mus musculus; experiment: Antiangiogenic activity in BALB/c mouse assessed as assessed as reduction in CD31-positive microvessel density in ear tissue at 2 uM measured after 6 days by fluorescence microscopic analysis; assay type: functional, organism-based; conditions: time 6.0 day
HUVEC [6] = experiment: Inhibition of tube formation in HUVEC measured up to 12 hrs by calcein-AM staining based fluorescence microscopic analysis; assay type: functional, cell-based; conditions: Homo sapiens, dose 250-10000 nM, time hrs <=12
HUVEC [7] = experiment: Inhibition of tube formation in HUVEC at 50 to 100 nM measured up to 12 hrs by calcein-AM staining based fluorescence microscopic analysis; assay type: functional, cell-based; conditions: Homo sapiens, dose 50-100 nM, time hrs <=12
HUVEC [8] = experiment: Antiangiogenic activity against VEGF-stimulated HUVEC cells assessed as reduction in endothelial sprouting tubules incubated for 3 days by Cytodex-3 beads based inverted microscopic analysis; assay type: functional, cell-based; conditions: Homo sapiens, dose 250-1000 nM, time 3.0 day
HUVEC [9] = experiment: Antiangiogenic activity against HUVEC cells assessed as inhibition of cell migration measured after 12 hrs by scratch wound closure assay relative to control; assay type: functional, Homo sapiens
HUVEC [10] = experiment: Antiangiogenic activity against HUVEC cells assessed as inhibition of cell migration measured after 24 hrs by scratch wound closure assay; assay type: functional, cell-based; conditions: Homo sapiens
HUVEC [11] = experiment: Cytotoxicity against HUVEC assessed as reduction in cell proliferation at 250 nM measured after 24 hrs by MTT assay; assay type: cell-based; conditions: human, 0.25 µM
HUVEC [12] = experiment: Effect on cell cycle distribution in HUVEC cells assessed as accumulation of cells in G2 phase at 250 nM measured after 24 hrs by propidium iodide staining based flow cytometry analysis (Rvb= 1.67%); assay type: functional, Homo sapiens
Mus musculus [13] = species: Mus musculus; experiment: Antiangiogenic activity in BALB/c mouse assessed as reduction in neovascularization by measuring reduction in hemoglobin concentration at 250 nM by matrigel plug assay; assay type: functional, organism-based
Mus musculus [14] = species: Mus musculus; experiment: Antiangiogenic activity in BALB/c mouse assessed as assessed as reduction in CD31-positive microvessel density in ear tissue at 250 nM measured after 6 days by fluorescence microscopic analysis; assay type: functional, organism-based; conditions: time 6.0 day
HUVEC [15] = experiment: Downregulation of p-Akt expression in HUVEC cells at 250 nM measured after 6 hrs by Western blot analysis; assay type: functional, cell-based; conditions: Homo sapiens
HUVEC [16] = experiment: Downregulation of p-Src expression in HUVEC cells at 250 nM measured after 6 hrs by Western blot analysis; assay type: functional, cell-based; conditions: Homo sapiens
HUVEC [17] = experiment: Downregulation of ICAM-1 expression in HUVEC cells at 250 nM measured after 6 hrs by Western blot analysis; assay type: functional, cell-based; conditions: Homo sapiens
HUVEC [18] = experiment: Induction of F-actin depolymerization in HUVEC assessed as loss of F-actin continuity at 250 nM incubated for 6 hrs by phalloidin staining based confocal microscopic analysis; assay type: tissue-based; conditions: Homo sapiens
Tubulin (Homo sapiens) [19] = target: T1, Tubulin (Homo sapiens) (UniProt P68371+Q9H4B7+P0DPH7+P68366+Q13509+Q71U36+P04350+Q3ZCM7+P07437+P68363+Q9BQE3+Q6PEY2+Q13885+Q9BVA1+Q9BUF5); experiment: Induction of microtubule depolymerization in HUVEC assessed as assessed as microtubule network abnormalities at 250 nM incubated for 6 hrs by […] based confocal microscopic analysis; assay type: tissue-based
HUVEC [20] = experiment: Induction of F-actin depolymerization in HUVEC assessed as loss of endothelial cell morphology at 250 nM incubated for 6 hrs by phalloidin staining based confocal microscopic analysis; conditions: Homo sapiens
Tubulin (Homo sapiens) [21] = target: T1, Tubulin (Homo sapiens); experiment: Induction of microtubule depolymerization in HUVEC assessed as assessed as loss of endothelial cell morphology at 250 nM incubated for 6 hrs by […] based confocal microscopic analysis
HUVEC [22] = experiment: Induction of F-actin depolymerization in HUVEC assessed as plasma membrane blebbing at 250 nM incubated for 6 hrs by phalloidin staining based confocal microscopic analysis; assay type: cell membranes; conditions: Homo sapiens
Tubulin (Homo sapiens) [23] = target: T1, Tubulin (Homo sapiens); experiment: Induction of microtubule depolymerization in HUVEC assessed as assessed as plasma membrane blebbing at 250 nM incubated for 6 hrs by […] based confocal microscopic analysis; assay type: cell membranes
[24] = Stability in simulated gastric fluid at pH 1.2 assessed as parent compound remaining after 2 hrs; assay type: ADME; conditions: read-out: Stability
[25] = Stability in simulated intestinal fluid at pH 6.8 assessed as parent compound remaining after 2 hrs; assay type: ADME; conditions: read-out: Stability
[26] = Stability in rat plasma assessed as compound remaining measured up to 2 hrs; assay type: ADME, cell-free; conditions: read-out: Stability
[27] = Metabolic stability in rat liver microsomes assessed as half life; assay type: ADME, Microsome
[28] = Metabolic stability in rat liver microsomes assessed as dissociation rate constant; assay type: ADME, Microsome
[29] = Intrinsic clearance in rat liver microsomes; assay type: ADME, Microsome
[30] = Stability in culture media assessed as compound remaining at 250 to 500 nM measured up to 24 hrs; assay type: physicochemical; conditions: dose 250-500 nM, read-out: Stability
[31] = Cmax in Sprague-Dawley rat at 25 mg/kg, IM measured up to 48 hrs; assay type: ADME, organism-based; parameters: route intramuscular, dose 25 mg/kg, time <=48; conditions: in vivo
[32] = Tmax in Sprague-Dawley rat at 25 mg/kg, IM measured up to 48 hrs; assay type: ADME, organism-based; conditions: in vivo
[33] = Apparent volume of distribution in Sprague-Dawley rat at 25 mg/kg, IM measured up to 48 hrs; assay type: ADME, organism-based; conditions: in vivo
[34] = Clearance in Sprague-Dawley rat at 25 mg/kg, IM measured up to 48 hrs; assay type: ADME, organism-based; conditions: in vivo
[35] = Half life in Sprague-Dawley rat at 25 mg/kg, IM measured up to 48 hrs; assay type: ADME, organism-based; conditions: in vivo
[36] = Elimination rate constant in Sprague-Dawley rat at 25 mg/kg, IM measured up to 48 hrs; assay type: ADME, organism-based; conditions: in vivo
HUVEC [37] = experiment: Vascular disruptive effect in HUVEC cells assessed as reduction in tube formation at 250 nM measured after 3 to 24 hrs by calcein-AM staining based fluorescence microscopic analysis; assay type: functional, cell-based; conditions: Homo sapiens, time 3-24 hrs
MDA-MB-468 = experiment: Antitumor activity against human MDA-MB-468 cells xenografted in CD-1 mouse assessed as reduction in tumor size at 30 mg/kg, iv administered once daily for 21 days; assay type: functional, organism-based; conditions: time 21.0 day
[38] = target: Vascular endothelial growth factor receptor 2 (Homo sapiens) (UniProt P35968); experiment: Inhibition of VEGFR2 phosphorylation in VEGF-induced HUVEC cells pretreated at 0.5 to 20 uM by Western blot analysis; assay type: cell-based; conditions: dose 0.5-20 µM
Vascular endothelial growth factor receptor 2 (Homo sapiens), sequence (P35968 whole entry): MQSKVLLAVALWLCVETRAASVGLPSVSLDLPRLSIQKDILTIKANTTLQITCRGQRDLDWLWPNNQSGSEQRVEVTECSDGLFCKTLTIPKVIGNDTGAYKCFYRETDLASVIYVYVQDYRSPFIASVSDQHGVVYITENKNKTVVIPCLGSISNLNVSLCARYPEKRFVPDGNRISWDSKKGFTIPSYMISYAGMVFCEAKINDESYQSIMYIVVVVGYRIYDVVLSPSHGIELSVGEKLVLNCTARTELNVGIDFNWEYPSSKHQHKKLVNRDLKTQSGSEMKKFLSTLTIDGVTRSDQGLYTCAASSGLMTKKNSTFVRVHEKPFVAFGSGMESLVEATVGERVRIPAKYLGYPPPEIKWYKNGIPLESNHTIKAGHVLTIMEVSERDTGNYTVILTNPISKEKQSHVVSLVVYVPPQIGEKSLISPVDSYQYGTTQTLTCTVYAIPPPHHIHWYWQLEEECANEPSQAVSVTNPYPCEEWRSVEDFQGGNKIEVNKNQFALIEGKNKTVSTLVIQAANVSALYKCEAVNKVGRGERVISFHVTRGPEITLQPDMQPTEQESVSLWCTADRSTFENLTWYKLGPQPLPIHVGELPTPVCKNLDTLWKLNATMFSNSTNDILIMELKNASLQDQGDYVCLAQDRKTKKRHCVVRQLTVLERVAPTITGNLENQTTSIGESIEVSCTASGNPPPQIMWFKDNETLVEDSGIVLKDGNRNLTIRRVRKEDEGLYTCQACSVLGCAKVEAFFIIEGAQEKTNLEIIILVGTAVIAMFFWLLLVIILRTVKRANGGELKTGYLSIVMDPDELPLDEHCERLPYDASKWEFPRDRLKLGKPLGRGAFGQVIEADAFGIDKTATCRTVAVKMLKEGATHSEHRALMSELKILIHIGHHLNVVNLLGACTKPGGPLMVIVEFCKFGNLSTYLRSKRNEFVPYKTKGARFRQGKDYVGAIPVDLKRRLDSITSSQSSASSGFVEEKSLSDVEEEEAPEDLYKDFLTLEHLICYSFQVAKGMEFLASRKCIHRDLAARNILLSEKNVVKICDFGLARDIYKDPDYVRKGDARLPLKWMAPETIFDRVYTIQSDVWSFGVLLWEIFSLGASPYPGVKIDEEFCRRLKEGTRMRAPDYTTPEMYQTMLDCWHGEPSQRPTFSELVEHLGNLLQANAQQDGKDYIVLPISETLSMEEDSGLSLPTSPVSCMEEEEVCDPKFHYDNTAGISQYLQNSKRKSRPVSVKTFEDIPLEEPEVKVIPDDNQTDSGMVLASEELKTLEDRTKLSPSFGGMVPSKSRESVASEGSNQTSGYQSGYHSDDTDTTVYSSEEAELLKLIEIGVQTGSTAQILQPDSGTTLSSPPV

COc1c2c(cc3c(C#N)c(Nc4ccccc4)sc13)OCO2
Activity (HUVEC [1]): 81%

CC(=O)N(c1ccc(O)cc1)c1sc2ccccc2c1C#N
Activity (HUVEC [1]): 36% | Activity (HUVEC [2]): 59%

N#Cc1c(Nc2ccccc2)sc2cc3ccccc3cc12
Activity (HUVEC [1]): 50%

N#Cc1c(Nc2ccc([N+](=O)[O-])cc2)sc2ccccc12
Activity (HUVEC [1]): 8% | Activity (HUVEC [2]): 37%

N#Cc1c(Nc2cccc(O)c2)sc2ccccc12
Activity (HUVEC [1]): 0% | Activity (HUVEC [2]): 60%

N#Cc1c(Nc2ccc(Cl)cc2)sc2ccccc12
Activity (HUVEC [1]): 45% | Activity (HUVEC [2]): 45%

CCN(CC)CCNC(=O)c1c(C)[nH]c(/C=C2\C(=O)Nc3ccc(F)cc32)c1C [SUNITINIB]
Activity (HUVEC [3]): 43% | Activity (Mus musculus [4]): Active | Activity (Mus musculus [5]): Active

COc1cccc(Nc2sc3ccccc3c2C#N)c1
Activity (HUVEC [1]): 81%

N#Cc1c(Nc2ccc(C(F)(F)F)cc2)sc2ccccc12
Activity (HUVEC [1]): 24% | Activity (HUVEC [2]): 65%

N#Cc1c(Nc2ccc(O)cc2)sc2ccccc12
Activity (HUVEC [1]): 25% | Activity (HUVEC [2]): 2% | inhibition (HUVEC [6]): Dose-Dependent Effect | inhibition (HUVEC [7]): inactive | Activity (HUVEC [8]): Dose-Dependent Effect | inhibition (INH) (HUVEC [9]): 80% | inhibition (HUVEC [10]): inactive | Activity (HUVEC [11]): Non-Toxic | Activity (HUVEC [12]): 1.58% | Activity (Mus musculus [13]): Active | Activity (Mus musculus [14]): Active | Activity (HUVEC [15]): Active | Activity (HUVEC [16]): Active | Activity (HUVEC [17]): inactive | Activity (HUVEC [18]): Active | Activity (Tubulin (Homo sapiens) [19]): Active | Activity (HUVEC [20]): Active | Activity (Tubulin (Homo sapiens) [21]): Active | Activity (HUVEC [22]): Active | Activity (Tubulin (Homo sapiens) [23]): Active | remaining at 2 h [24]: 90.4% | remaining at 2 h [25]: 89% | remaining at 2 h [26]: 89.1% | half-life [27]: 1.87 h | Kdiss [28]: 0.000103 s⁻¹ | CLH [29]: 0.74 L/h | remaining at 24 h, up to 0.5 µM [30]: 78.3% | Cmax [31]: 0.442 µg/mL | Tmax [32]: 0.5 h | Vz [33]: 107.16 L/kg | CL/F [34]: 12.3 L/h/kg | half-life [35]: 6 h | k el at 48 h [36]: 3.47e-05 s⁻¹ | Activity (HUVEC [37]): Active | Activity (MDA-MB-468): Active | inhibition [38]: Active

N#Cc1c(Nc2ccc(N)cc2)sc2ccccc12
Activity (HUVEC [1]): 1% | Activity (HUVEC [2]): 51%

COc1ccc(Nc2sc3c(OC)cc(OC)cc3c2C#N)cc1
Activity (HUVEC [1]): 63%

N#Cc1c(Nc2ccccc2O)sc2ccccc12
Activity (HUVEC [1]): 19% | Activity (HUVEC [2]): 68%

COc1cc2sc(Nc3ccc(O)cc3)c(C#N)c2cc1OC
Activity (HUVEC [1]): 0% | Activity (HUVEC [2]): 73%

N#Cc1c(Nc2ccc(F)cc2)sc2ccccc12
Activity (HUVEC [1]): 25% | Activity (HUVEC [2]): 58%

COc1cc2sc(Nc3cccc(O)c3)c(C#N)c2cc1OC
Activity (HUVEC [1]): 11% | Activity (HUVEC [2]): 67%

N#Cc1c(Nc2ccccc2)sc2ccccc12
Activity (HUVEC [1]): 81%

COc1cc2sc(Nc3ccccc3)c(C#N)c2cc1OC
Activity (HUVEC [1]): 77%

N#Cc1c(Nc2ccccc2)sc2cc3c(cc12)OCO3
Activity (HUVEC [1]): 75%

COc1ccc(Nc2sc3ccccc3c2C#N)cc1
Activity (HUVEC [1]): 57%
